Measurements taken from patent publication US7211587B2, “Quinoline derivatives and quinazoline derivatives having azolyl group” (Kirin Beer Kabushiki Kaisha, priority 2001, dated 2007).

What was measured:
[1] = tested on: human pulmonary carcinoma cells (A549); experiment: Antitumor activity against human pulmonary carcinoma cells (A549) using nude mice; type: in vivo; details: A549 in nude mice, oral 20 mg/kg once a day for 9 days
Experimental: (§1) Human colon carcinoma cells (LS174T) (obtained from American Type Culture Collection) or human pulmonary carcinoma cells (A549) (obtained from RIKEN Cell Bank) were transplanted into nude mice. When the tumor volume became about 150 mm^3, the mice were grouped so that each group consisted of four mice and the average tumor volume was even among the groups. A test compound was orally administered at doses of 5 and 20 mg/kg to the test groups every day once a day for 9 days, while only a vehicle was administered to a control group in the manner as in the test groups. The tumor growth inhibition rate (TGIR) was calculated as follows: The tumor growth inhibition rate (TGIR)=(1−TX/CX)×100 wherein CX represents the volume of tumor at day X for the control group when the tumor volume at the first day of the administration was presumed to be 1; and TX represents the tumor volume for test compound administration groups.

[2] = tested on: Human pulmonary carcinoma cells (LC-6); experiment: Antitumor activity against human pulmonary carcinoma cells (LC-6) transplanted into nude mice; type: in vivo; details: Mus musculus, 216 h; LC-6 in nude mice, oral 20 mg/kg once a day for 9 days; read-out: TGIR (tumor growth inhibition rate)
Experimental: as §1, with “Human” for “Human colon carcinoma cells (LS174T) (obtained from American Type Culture Collection) or human”, “(LC-6)” for “(A549)”, “Central Laboratories for Experimental Animals)” for “RIKEN Cell Bank)”, “100” for “150”, “a dose” for “doses”, “of” for “of 5 and”

[3] = tested on: Human pulmonary carcinoma cells (LC-6); experiment: Antitumor activity against human pulmonary carcinoma cells (LC-6) using nude rats; type: in vivo; details: LC-6 in nude rats
Experimental: Human pulmonary carcinoma cells (LC-6) (obtained from Central Laboratories for Experimental Animals) were transplanted into nude rats. When the tumor volume became about 700 mm^3, the rats were grouped so that each group consisted of four rats and the average tumor volume was even among the groups. A test compound was orally administered at doses of 0.2, 0.5, 1.0, and 5.0 mg/kg to the test groups every day once a day for 14 days, while only a vehicle was administered to a control group in the manner as in the test groups. The tumor growth inhibition rate (TGIR) was calculated as follows: The tumor growth inhibition rate (TGIR)=(1−TX/CX)×100 wherein CX represents the volume of tumor at day X for the control group when the tumor volume at the first day of the administration was presumed to be 1; and TX represents the tumor volume for test compound administration groups.

[4] = tested on: Human colon carcinoma cells (LS174T); experiment: Antitumor activity against human colon carcinoma cells (LS174T) using nude mice; type: in vivo; details: LS174T (printed LS17) in nude mice, oral 5 mg/kg once a day for 9 days
Experimental: as §1

human KDR = target: T1, human KDR (Homo sapiens, UniProt P35968); experiment: Inhibitory activity against KDR phosphorylation by ELISA (VEGF-stimulated NIH 3T3 cells expressing human KDR); type: cell-based; details: VEGF 100 ng/ml, compound 1 hr, read-out: IC50 (inhibition of KDR phosphorylation)
T1 construct: expressed in transfected cells; host or cells: NIH 3T3 cells (mouse fibroblasts) stably expressing human KDR
Experimental: The harvested cells were inoculated into wells of a collagen-type one-coat 96-well flat-bottom plate, each containing the same medium, in an amount of 1.5×10^4 per well, followed by cultivation at 37° C. overnight. The medium was then replaced by a DMEM medium containing 0.1% fetal calf serum. A solution of a test compound in dimethyl sulfoxide was added to each well, and the cultivation was continued at 37° C. for additional one hr. A human recombinant vascular endothelial growth factor (hereinafter abbreviated to “VEGF”) was added to a final concentration of 100 ng/ml, and the stimulation of cells was carried out at 37° C. for 2 min. The medium was removed, the cells were washed with phosphate buffered saline (pH 7.4), and 50 μl of a solubilization buffer (20 mM HEPES (pH 7.4), 150 mM NaCl, 0.2% Triton X-100, 10% glycerol, 5 mM sodium orthovanadylate, 5 mM disodium ethylenediaminetetraacetate, and 2 mM Na4P2O7) was then added thereto. The mixture was shaken at 4° C. for 2 hr to prepare a cell extract.
Separately, phosphate buffered saline (50 μl, pH 7.4) containing 5 μg/ml of an anti-phospho-tyrosine antibody (PY20; purchased from Transduction Laboratories) was added to a microplate for ELISA (Maxisorp; purchased from NUNC), followed by standing at 4° C. overnight to form a solid phase on the wells. After washing of the plate, 300 μl of a blocking solution was added, followed by standing at room temperature for 2 hr to perform blocking. After washing, the whole quantity of the cell extract was transferred to the wells, and the plate was then allowed to stand at 4° C. overnight. After washing, an anti-KDR antibody (purchased from Santa Cruz) was allowed to react at room temperature for one hr, and, after washing, a peroxidase-labeled anti-rabbit Ig antibody (purchased from Amersham) was allowed to react at room temperature for one hr. After washing, a chromophoric substrate for peroxidase (purchased from Sumitomo Bakelite Co., Ltd.) was added thereto to initiate a reaction. After a suitable level of color development, a reaction termination solution was added to stop the reaction, and the absorbance at 450 nm was measured with a microplate reader. The KDR phosphorylation activity for each well was determined by presuming the absorbance with the addition of VEGF and without the addition of the medicament to be 100% KDR phosphorylation activity and the absorbance without the addition of the medicament and VEGF to be 0% KDR phosphorylation activity.

[5] = oral 5 mg/kg once a day for 14 days

T1 sequence (P35968 20-1356): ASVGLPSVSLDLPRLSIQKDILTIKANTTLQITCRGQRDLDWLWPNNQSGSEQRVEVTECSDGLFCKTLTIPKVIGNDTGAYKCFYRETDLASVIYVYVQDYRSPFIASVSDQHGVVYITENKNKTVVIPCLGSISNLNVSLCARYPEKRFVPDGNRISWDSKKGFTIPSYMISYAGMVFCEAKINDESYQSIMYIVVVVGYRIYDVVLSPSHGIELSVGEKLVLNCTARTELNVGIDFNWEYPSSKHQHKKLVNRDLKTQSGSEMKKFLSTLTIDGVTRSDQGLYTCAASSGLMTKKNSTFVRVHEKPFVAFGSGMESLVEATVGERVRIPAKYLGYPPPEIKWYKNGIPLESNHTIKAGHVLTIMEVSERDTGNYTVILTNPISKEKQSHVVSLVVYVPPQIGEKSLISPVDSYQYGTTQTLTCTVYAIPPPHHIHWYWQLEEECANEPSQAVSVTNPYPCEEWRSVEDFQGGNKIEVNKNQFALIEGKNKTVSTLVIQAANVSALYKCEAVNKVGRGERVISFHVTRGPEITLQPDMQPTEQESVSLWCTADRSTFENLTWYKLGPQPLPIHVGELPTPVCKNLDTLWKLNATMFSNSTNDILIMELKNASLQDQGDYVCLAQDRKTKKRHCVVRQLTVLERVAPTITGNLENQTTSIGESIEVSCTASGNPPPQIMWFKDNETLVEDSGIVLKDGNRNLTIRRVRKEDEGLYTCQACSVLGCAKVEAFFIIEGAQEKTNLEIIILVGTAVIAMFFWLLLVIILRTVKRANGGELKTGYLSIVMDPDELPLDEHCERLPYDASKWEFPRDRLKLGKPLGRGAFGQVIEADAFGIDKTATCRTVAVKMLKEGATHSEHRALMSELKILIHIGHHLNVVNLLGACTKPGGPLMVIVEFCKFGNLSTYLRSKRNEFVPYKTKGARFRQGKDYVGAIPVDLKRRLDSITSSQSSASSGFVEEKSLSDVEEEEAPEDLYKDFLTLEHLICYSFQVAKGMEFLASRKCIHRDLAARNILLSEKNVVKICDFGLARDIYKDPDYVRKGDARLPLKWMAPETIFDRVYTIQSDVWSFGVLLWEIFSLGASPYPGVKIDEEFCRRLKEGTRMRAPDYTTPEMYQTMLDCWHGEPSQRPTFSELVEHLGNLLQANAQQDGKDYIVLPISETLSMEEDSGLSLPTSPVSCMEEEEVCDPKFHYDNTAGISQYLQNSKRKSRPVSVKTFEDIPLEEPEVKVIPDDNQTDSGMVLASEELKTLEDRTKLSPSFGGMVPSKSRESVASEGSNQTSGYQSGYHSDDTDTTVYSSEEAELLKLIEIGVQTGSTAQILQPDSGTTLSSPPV

SMILES | TGIR (tumor growth inhibition rate) [1] | inhibition in vivo at 20 mg/kg [2] | TGIR (tumor growth inhibition rate) ([3]; oral 0.2 mg/kg once a day for 14 days) | TGIR (tumor growth inhibition rate) ([3]; oral 0.5 mg/kg once a day for 14 days) | TGIR (tumor growth inhibition rate) ([3]; oral 1 mg/kg once a day for 14 days) | TGIR (tumor growth inhibition rate) [4] | IC50 (human KDR) | TGIR (tumor growth inhibition rate) [3, 5]
COc1cc2nccc(Oc3ccc(NC(=O)Nc4cc(C)on4)c(Cl)c3)c2cc1OC [Ex. 4, N-{2-Chloro-4-[(6,7-dimethoxy-4-quinolyl)oxy]phenyl}-N′-(5-methyl-3-isoxazolyl)urea] | 65% | 55.4% | 62% | 80% | 88% | 65% |  | 
COc1cc2nccc(Oc3ccc(NC(=O)Nc4nccs4)c(F)c3)c2cc1OC.Cl [Ex. 27, N-{4-[(6,7-Dimethoxy-4-quinolyl)oxy]-2-fluorophenyl}-N′-(1,3-thiazol-2-yl)urea hydrochloride] |  |  |  |  |  |  | 0.3 nM | 82%
COc1cc2nccc(Oc3ccc(NC(=O)Nc4nc(C)cs4)c(F)c3)c2cc1OC.Cl [Ex. 28, N-{4-[(6,7-Dimethoxy-4-quinolyl)oxy]-2-fluorophenyl}-N′-(4-methyl-1,3-thiazol-2-yl)urea hydrochloride] |  | 66.3% |  |  |  |  | 0.3 nM | 59%
COc1cc2ncnc(Oc3ccc(NC(=O)Nc4nccs4)c(Cl)c3)c2cc1OC [Ex. 38, N-{2-Chloro-4-[(6,7-dimethoxy-4-quinazolinyl)oxy]phenyl}-N′-(1,3-thiazol-2-yl)urea] |  | 92% |  |  |  |  | < 1 nM | 78%
COc1cc2nccc(Oc3ccc(NC(=O)Nc4nnc(C)s4)c(F)c3)c2cc1OC [Ex. 58, N-{4-[(6,7-Dimethoxy-4-quinolyl)oxy]-2-fluorophenyl}-N′-(5-methyl-1,3,4-thiadiazol-2-yl)urea] |  | 13.4% |  |  |  |  | 36 nM | 
COc1cc2nccc(Oc3cc(C)c(NC(=O)Nc4nnc(C5CC5)s4)cc3C)c2cc1OC [Ex. 69, N-(5-Cyclopropyl-1,3,4-thiadiazol-2-yl)-N′-{4-[(6,7-dimethoxy-4-quinolyl)oxy]-2,5-dimethylphenyl}-urea] |  | 23.3% |  |  |  |  | 4.1 nM | 
